How the values were obtained:
corn = assay: Test A postemergence; assay type: in vivo, Zea mays; settings: Zea mays, post-emergence, 240 h, 0 to 100 scale (0 no effect, 100 complete control), approx. 10 d; for Corn plant response rating (crop injury, 0 = no effect, 100 = complete kill) at 125 g/ha: 125 g ai/ha
Outline: (§1)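 Loam/sand soil mix; compound in non-phytotoxic solvent + surfactant. Pre: directed soil spray right after planting seed. Post: potted plants 2–10 cm, 1–2 leaf stage, sprayed with same formulation.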

barnyardgrass [1] = assay: Test B flooded paddy test; assay type: in vivo, Echinochloa crus-galli; settings: Echinochloa crus-galli, 360 h, 125 g ai/ha, applied to paddy water at 2-leaf stage, visual rating after 13 to 15 d, scale 0 (no effect) to 100 (complete control), read-out: Plant response rating, Barnyardgrass, Flood
Outline: (§2)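 Pots were flooded to 3 cm above the soil at treatment, and compounds were applied directly into the paddy water. That depth was held throughout. After 13 to 15 d in a greenhouse, plants were rated visually against untreated controls.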

pigweed [2] = assay: Test A postemergence; assay type: in vivo, Amaranthus retroflexus; settings: Amaranthus retroflexus, post-emergence, 240 h, 0 to 100 scale (0 no effect, 100 complete control), approx. 10 d, read-out: Plant response rating, Pigweed; for pest or weed control at 125 g/ha: 125 g ai/ha
Outline: as §1

rice = assay: Test B flooded paddy test; assay type: in vivo, Oryza sativa; settings: Oryza sativa, 360 h, 125 g ai/ha, applied to paddy water at 2-leaf stage, visual rating after 13 to 15 d, scale 0 (no effect) to 100 (complete control), read-out: Plant response rating, Rice, Flood
Outline: as §2

foxtail, giant [3] = assay: Test A preemergence; assay type: in vivo, Setaria faberii; settings: Setaria faberi, pre-emergence, 240 h, 0 to 100 scale (0 no effect, 100 complete control), read-out: Plant response rating, Foxtail, Giant; for pest or weed control at 125 g/ha: 125 g ai/ha
Outline: as §1

barnyardgrass [4] = assay: Test A postemergence; assay type: in vivo, Echinochloa crus-galli; settings: Echinochloa crus-galli, post-emergence, 240 h, 0 to 100 scale (0 no effect, 100 complete control), approx. 10 d, read-out: Plant response rating, Barnyardgrass; for pest or weed control at 125 g/ha: 125 g ai/ha
Outline: as §1

lambsquarters = assay: Test C postemergence; assay type: in vivo, Chenopodium album
From the text: (§3) Seeds of plant species selected from blackgrass (Alopecurus myosuroides), ryegrass, Italian (Italian ryegrass, Lolium multiflorum), wheat (winter wheat, Triticum aestivum), galium (catchweed bedstraw, Galium aparine), corn (Zea mays), crabgrass, large (large crabgrass, Digitaria sanguinalis), foxtail, giant, (giant foxtail, Setaria faberii), johnsongrass (Sorghum halepense), lambsquarters (Chenopodium album), morningglory (Ipomoea coccinea), nutsedge, yellow (yellow nutsedge, Cyperus esculentus), pigweed (Amaranthus retroflexus), ragweed (common ragweed, Ambrosia elatior), soybean (Glycine max), barnyardgrass (Echinochloa crus-galli), oilseed rape (Brassica napus), waterhemp (common waterhemp, Amaranthus rudis), and velvetleaf (Abutilon theophrasti) were planted into a blend of loam soil and sand and treated preemergence with test chemicals formulated in a non-phytotoxic solvent mixture which included a surfactant. At the same time, plants selected from these crop and weed species and also chickweed (common chickweed, Stellaria media), oat, wild (wild oat, Avena fatua), and kochia (Kochia scoparia), were planted in pots containing Sunshine Redi-Earth® planting medium comprising spaghnum peat moss, vermiculite, starter nutrients and dolomitic limestone and treated with postemergence applications of test chemicals formulated in the same manner. Plants ranged in height from 2 to 18 cm (1- to 4-leaf stage) for postemergence treatments. […] A dash (-) response means no test result.

johnsongrass = assay: Test C postemergence; assay type: in vivo, Sorghum halepense
From the text: as §3

oilseed rape = assay: Test C postemergence; assay type: in vivo, Brassica napus
From the text: as §3

nutsedge, yellow = assay: Test C postemergence; assay type: in vivo, Cyperus esculentus
From the text: as §3

pigweed [5] = assay: Test C postemergence; assay type: in vivo, Amaranthus retroflexus
From the text: as §3

crabgrass, large = assay: Test C postemergence; assay type: in vivo, Digitaria sanguinalis
From the text: as §3

kochia = assay: Test C postemergence; assay type: in vivo, Kochia scoparia
From the text: as §3

morningglory = assay: Test C postemergence; assay type: in vivo, Ipomoea coccinea
From the text: as §3

velvetleaf = assay: Test C postemergence; assay type: in vivo, Abutilon theophrasti
From the text: as §3

wheat (winter wheat) = assay: Test C postemergence; assay type: in vivo, Triticum aestivum
From the text: as §3

chickweed = assay: Test C postemergence; assay type: in vivo, Stellaria media
From the text: as §3

ragweed = assay: Test C postemergence; assay type: in vivo, Ambrosia elatior
From the text: as §3

oat, wild = assay: Test C postemergence; assay type: in vivo, Avena fatua
From the text: as §3

foxtail, giant [6] = assay: Test C postemergence; assay type: in vivo, Setaria faberii
From the text: as §3

Cn1nc(-c2ccc(F)cc2)nc1C(O)c1ccnc(C(F)(F)F)c1 (stereo not drawn) [Compound 14, α-[3-(4-fluorophenyl)-1-methyl-1H-1,2,4-triazol-5-yl]-2-(trifluoromethyl)-4-pyridinemethanol]
Corn plant response rating (crop injury, 0 = no effect, 100 = complete kill) at 125 g/ha (corn): 10% | Corn plant response rating (crop injury, 0 = no effect, 100 = complete kill) at 500 g/ha (corn; 500 g ai/ha): 20% | pest or weed control at 125 g/ha (barnyardgrass [1]): 0% | pest or weed control at 125 g/ha (pigweed [2]): 60% | pest or weed control at 500 g/ha (pigweed [2]; 500 g ai/ha): 90% | plant injury at 125 g/ha (rice): 0% | pest or weed control at 125 g/ha (foxtail, giant [3]): 30% | pest or weed control at 500 g/ha (foxtail, giant [3]; 500 g ai/ha, approx. 10 d): 90% | pest or weed control at 125 g/ha (barnyardgrass [4]): 10% | pest or weed control at 500 g/ha (barnyardgrass [4]; 500 g ai/ha): 20%

CCOc1nc(-c2ccc(C(F)(F)F)cc2)nn1Cc1ccnc(C(F)(F)F)c1 [Compound 35, 4-[[5-ethoxy-3-[4-(trifluoromethyl)phenyl]-1H-1,2,4-triazole-1-yl]methyl]-2-(trifluoromethyl)pyridine]
Corn plant response rating (crop injury, 0 = no effect, 100 = complete kill) at 31 g/ha (corn; 31 g ai/ha): 40% | Corn plant response rating (crop injury, 0 = no effect, 100 = complete kill) at 125 g/ha (corn): 80% | Plant response rating (scale of 0 to 100 where 0 is no effect and 100 is complete control) (lambsquarters; 31 g ai/ha): 98 | Plant response rating (scale of 0 to 100 where 0 is no effect and 100 is complete control) (lambsquarters; 62 g ai/ha): 95 | Plant response rating (scale of 0 to 100 where 0 is no effect and 100 is complete control) (lambsquarters; 125 g ai/ha): 98 | Plant response rating (scale of 0 to 100 where 0 is no effect and 100 is complete control) (lambsquarters; 250 g ai/ha): 100 | Plant response rating (scale of 0 to 100 where 0 is no effect and 100 is complete control) (johnsongrass; 31 g ai/ha): 75 | Plant response rating (scale of 0 to 100 where 0 is no effect and 100 is complete control) (johnsongrass; 62 g ai/ha): 85 | Plant response rating (scale of 0 to 100 where 0 is no effect and 100 is complete control) (johnsongrass; 125 g ai/ha): 95 | Plant response rating (scale of 0 to 100 where 0 is no effect and 100 is complete control) (johnsongrass; 250 g ai/ha): 100 | Plant response rating (scale of 0 to 100 where 0 is no effect and 100 is complete control) (oilseed rape; Oilsee Rape, 250 g ai/ha): 98 | Plant response rating (scale of 0 to 100 where 0 is no effect and 100 is complete control) (oilseed rape; Oilseed Rape, 31 g ai/ha): 80 | Plant response rating (scale of 0 to 100 where 0 is no effect and 100 is complete control) (oilseed rape; Oilseed Rape, 62 g ai/ha): 90 | Plant response rating (scale of 0 to 100 where 0 is no effect and 100 is complete control) (oilseed rape; Oilseed Rape, 125 g ai/ha): 80 | Plant response rating (scale of 0 to 100 where 0 is no effect and 100 is complete control) (nutsedge, yellow; 31 g ai/ha): 20 | Plant response rating (scale of 0 to 100 where 0 is no effect and 100 is complete control) (nutsedge, yellow; 62 g ai/ha): 10 | Plant response rating (scale of 0 to 100 where 0 is no effect and 100 is complete control) (nutsedge, yellow; 125 g ai/ha): 30 | Plant response rating (scale of 0 to 100 where 0 is no effect and 100 is complete control) (nutsedge, yellow; 250 g ai/ha): 35 | Plant response rating (scale of 0 to 100 where 0 is no effect and 100 is complete control) (pigweed [5]; 31 g ai/ha): 98 | Plant response rating (scale of 0 to 100 where 0 is no effect and 100 is complete control) (pigweed [5]; 62 g ai/ha): 98 | Plant response rating (scale of 0 to 100 where 0 is no effect and 100 is complete control) (pigweed [5]; 125 g ai/ha): 100 | Plant response rating (scale of 0 to 100 where 0 is no effect and 100 is complete control) (pigweed [5]; 250 g ai/ha): 100 | pest or weed control at 31 g/ha (pigweed [2]; 31 g ai/ha): 100% | pest or weed control at 125 g/ha (pigweed [2]): 100% | Plant response rating (scale of 0 to 100 where 0 is no effect and 100 is complete control) (crabgrass, large; 31 g ai/ha): 35 | Plant response rating (scale of 0 to 100 where 0 is no effect and 100 is complete control) (crabgrass, large; 62 g ai/ha): 60 | Plant response rating (scale of 0 to 100 where 0 is no effect and 100 is complete control) (crabgrass, large; 125 g ai/ha): 70 | Plant response rating (scale of 0 to 100 where 0 is no effect and 100 is complete control) (crabgrass, large; 250 g ai/ha): 80 | Plant response rating (scale of 0 to 100 where 0 is no effect and 100 is complete control) (kochia; 31 g ai/ha): 90 | Plant response rating (scale of 0 to 100 where 0 is no effect and 100 is complete control) (kochia; 62 g ai/ha): 90 | Plant response rating (scale of 0 to 100 where 0 is no effect and 100 is complete control) (kochia; 125 g ai/ha): 90 | Plant response rating (scale of 0 to 100 where 0 is no effect and 100 is complete control) (kochia; 250 g ai/ha): 90 | Plant response rating (scale of 0 to 100 where 0 is no effect and 100 is complete control) (morningglory; 31 g ai/ha): 70 | Plant response rating (scale of 0 to 100 where 0 is no effect and 100 is complete control) (morningglory; 62 g ai/ha): 95 | Plant response rating (scale of 0 to 100 where 0 is no effect and 100 is complete control) (morningglory; 125 g ai/ha): 85 | Plant response rating (scale of 0 to 100 where 0 is no effect and 100 is complete control) (morningglory; 250 g ai/ha): 95 | Plant response rating (scale of 0 to 100 where 0 is no effect and 100 is complete control) (velvetleaf; 31 g ai/ha): 65 | Plant response rating (scale of 0 to 100 where 0 is no effect and 100 is complete control) (velvetleaf; 62 g ai/ha): 75 | Plant response rating (scale of 0 to 100 where 0 is no effect and 100 is complete control) (velvetleaf; 125 g ai/ha): 80 | Plant response rating (scale of 0 to 100 where 0 is no effect and 100 is complete control) (velvetleaf; 250 g ai/ha): 85 | Plant response rating (scale of 0 to 100 where 0 is no effect and 100 is complete control) (wheat (winter wheat); 31 g ai/ha): 15 | Plant response rating (scale of 0 to 100 where 0 is no effect and 100 is complete control) (wheat (winter wheat); 62 g ai/ha): 20 | Plant response rating (scale of 0 to 100 where 0 is no effect and 100 is complete control) (wheat (winter wheat); 125 g ai/ha): 35 | Plant response rating (scale of 0 to 100 where 0 is no effect and 100 is complete control) (wheat (winter wheat); 250 g ai/ha): 30 | Plant response rating (scale of 0 to 100 where 0 is no effect and 100 is complete control) (chickweed; 31 g ai/ha): 100 | Plant response rating (scale of 0 to 100 where 0 is no effect and 100 is complete control) (chickweed; 62 g ai/ha): 100 | Plant response rating (scale of 0 to 100 where 0 is no effect and 100 is complete control) (chickweed; 125 g ai/ha): 100 | Plant response rating (scale of 0 to 100 where 0 is no effect and 100 is complete control) (chickweed; 250 g ai/ha): 100 | Plant response rating (scale of 0 to 100 where 0 is no effect and 100 is complete control) (ragweed; 31 g ai/ha): 65 | Plant response rating (scale of 0 to 100 where 0 is no effect and 100 is complete control) (ragweed; 62 g ai/ha): 75 | Plant response rating (scale of 0 to 100 where 0 is no effect and 100 is complete control) (ragweed; 125 g ai/ha): 80 | Plant response rating (scale of 0 to 100 where 0 is no effect and 100 is complete control) (ragweed; 250 g ai/ha): 85 | Plant response rating (scale of 0 to 100 where 0 is no effect and 100 is complete control) (oat, wild; 31 g ai/ha): 45 | Plant response rating (scale of 0 to 100 where 0 is no effect and 100 is complete control) (oat, wild; 62 g ai/ha): 50 | Plant response rating (scale of 0 to 100 where 0 is no effect and 100 is complete control) (oat, wild; 125 g ai/ha): 85 | Plant response rating (scale of 0 to 100 where 0 is no effect and 100 is complete control) (oat, wild; 250 g ai/ha): 90 | Plant response rating (scale of 0 to 100 where 0 is no effect and 100 is complete control) (foxtail, giant [6]; 31 g ai/ha): 25 | Plant response rating (scale of 0 to 100 where 0 is no effect and 100 is complete control) (foxtail, giant [6]; 62 g ai/ha): 40 | Plant response rating (scale of 0 to 100 where 0 is no effect and 100 is complete control) (foxtail, giant [6]; 125 g ai/ha): 70 | Plant response rating (scale of 0 to 100 where 0 is no effect and 100 is complete control) (foxtail, giant [6]; 250 g ai/ha): 85 | pest or weed control at 31 g/ha (foxtail, giant [3]; 31 g ai/ha): 100% | pest or weed control at 125 g/ha (foxtail, giant [3]): 100% | pest or weed control at 31 g/ha (barnyardgrass [4]; 31 g ai/ha): 80% | pest or weed control at 125 g/ha (barnyardgrass [4]): 90%

Source: patent publication US10681909B2, “Herbicidal triazoles” (FMC Corporation, priority 2014, dated 2020)
